Data: US20150374646A1, “TREATMENT OF CANCER AND OTHER CONDITIONS USING A TRANSCRIPTION FACTOR MODULATOR” (C & C BIOPHARMA, LLC, priority 2013, published 2015)

Experiments:
[1] = system: K562 cells; test: Subcutaneous K562 (CML) tumor growth in SCID mice (Example 6); format: in vivo; conditions: for Average body weight, End point / Average body weight, Initial / Tumor size / Tumor weight: x ± s; for Average body weight, Initial: initial (before treatment)
Experimental: Male Severe Combined Immunodeficiency (SCID) mice that were 4-6 weeks old were used in the experiment. The mice were fed under specific pathogen free (SPF) conditions. Food and water were available to the mice at will. A suspension of 8×10^6 chronic myelogenous leukemia K562 cells (0.2 mL) was inoculated subcutaneously into the right back of the SCID mice.
The general conditions of the mice and the growth of the transplanted tumor were monitored. […] The control group received an intraperitoneal injection (IP) of 0.2 mL solvent (20% DMSO, 80% of 20% w/v (2-hydroxypropyl)-β-cyclodextrin made in PBS). […] The YT30 treated groups received either intraperitoneal injection of 50 mg/kg/day of YT30 (0.2 mL in volume) suspended in solvent (20% DMSO, 80% of 20% w/v (2-hydroxypropyl)-β-cyclodextrin made in PBS) or oral gavage of 90 mg/kg/day YT30 in solvent (Cremophor RH40:TW80:PEG400 (2:1:1)). Frequency of the administration was once per day and the experiment lasted 16 days after initiation of the treatment.
The body weights of the mice were recorded prior to the start of treatment and twice every week thereafter. Each mouse of every group was monitored daily for any other symptoms of side effects including change in behavior, activity or posture, areas of redness and swelling, and food and water withdrawal. Caliper measurements of the longest perpendicular tumor diameters were performed every 2 days to estimate the tumor volume; the following formula: 4π/3×(width/2)^2×(length/2) was used to calculate the three-dimensional volume of an ellipse. The tumor inhibition rate was calculated according to tumor volume: Tumor inhibition rate by size (%)=(Tumor volume of the control group−Tumor volume of the treated group)/Tumor volume of the control group×100. The SCID mice were euthanized 2 hours after the final injection and the subcutaneous tumor nodules were taken out intact and weighed. The tumor inhibition rate was calculated again according to tumor weight: Tumor inhibition rate by weight (%)=(Tumor weight of the control group−Tumor weight of the treated group)/Tumor weight of the control group×100.

[2] = system: REH; test: Leukemia cell growth inhibition, CellTiter-Glo (Example 1); format: cell-based, human; conditions: REH cells, 4 μM
Experimental: Various human leukemia cells were grown to the logarithmic growth phase and seeded into 24-well plates. […] Treated cells were further incubated for 72 hours and then were examined for cell proliferation. Cell proliferation was determined using the CellTiter-Glo Luminescence Cell Viability assay (Promega Corporation, Madison, Wis.) according to the manufacturer's protocol. The calculated inhibition rate was determined with the following formula: Inhibition rate (%)=(1−Luminescence of experimental group/Luminescence of control group)×100. IC50 is the calculated concentration of a compound needed to inhibit half of the maximum cell growth (equivalent to cell growth in control group) based on the corresponding dose-response curve under the described experimental conditions.

[3] = system: M14; test: Cancer cell line growth inhibition, CellTiter-Glo (Example 3); format: cell-based; conditions: Homo sapiens, Melanoma, 72 hours
Experimental: (§1) YT30 was tested for growth inhibition against 67 human cancer cell lines derived from diverse tissues including the National Cancer Institute human cancer cell lines (NCI-60). […] Cells in different wells were treated with various concentrations of YT30, YT86, YT88, or YT128. […] Cell viabilities were determined by the CellTiter-Glo Luminescence Cell Viability assay kit (Promega Corporation, Madison, Wis.) according to manufacturer's protocol.

[4] = system: MALME-3M; test: as above; format: cell-based; conditions: Homo sapiens, Melanoma, 72 hours
Experimental: as §1

[5] = system: HL60; test: as above; format: cell-based; conditions: Homo sapiens, HL-60, Leukemia, 72 hours, read-out: IC50
Experimental: as §1

[6] = system: SK-MEL-28; test: as above; format: cell-based; conditions: Homo sapiens, Melanoma, 72 hours
Experimental: as §1

[7] = system: TK-10; test: as above; format: cell-based; conditions: Homo sapiens, Renal, 72 hours, read-out: IC50
Experimental: as §1

[8] = system: Colo 205; test: as above; format: cell-based; conditions: Homo sapiens, Colon, 72 hours
Experimental: as §1

[9] = system: HS 578T; test: as above; format: cell-based; conditions: Homo sapiens, Breast, 72 hours, read-out: IC50
Experimental: as §1

[10] = system: OVCAR-5; test: as above; format: cell-based; conditions: Homo sapiens, Ovary, 72 hours, read-out: IC50
Experimental: as §1

[11] = system: A498; test: as above; format: cell-based; conditions: Homo sapiens, Renal, 72 hours, read-out: IC50
Experimental: as §1

[12] = system: PC-3; test: as above; format: cell-based; conditions: Homo sapiens, Prostate, 72 hours
Experimental: as §1

[13] = system: NCI-H460; test: as above; format: cell-based; conditions: Homo sapiens, NSCLC, 72 hours
Experimental: as §1

[14] = system: DU-145; test: as above; format: cell-based; conditions: Homo sapiens, Prostate, 72 hours, read-out: IC50
Experimental: as §1

[15] = system: MDA-MB231; test: as above; format: cell-based; conditions: Homo sapiens, MDA-MB-231; Breast, MDA-MB231; 72 hours; read-out: IC50
Experimental: as §1

[16] = system: UACC-62; test: as above; format: cell-based; conditions: Homo sapiens, Melanoma, 72 hours
Experimental: as §1

[17] = system: ACHN; test: as above; format: cell-based; conditions: Homo sapiens, Renal, 72 hours
Experimental: as §1

[18] = system: MCF7; test: as above; format: cell-based; conditions: Homo sapiens, Breast, 72 hours, read-out: IC50
Experimental: as §1

[19] = system: SK-MEL-2; test: as above; format: cell-based; conditions: Homo sapiens, Melanoma, 72 hours
Experimental: as §1

[20] = system: MOLT-4; test: as above; format: cell-based; conditions: Homo sapiens, Leukemia, 72 hours, read-out: IC50
Experimental: as §1

[21] = system: SF-295; test: as above; format: cell-based; conditions: Homo sapiens, CNS, 72 hours, read-out: IC50
Experimental: as §1

[22] = system: MDA-MB-435; test: as above; format: cell-based; conditions: Homo sapiens, Melanoma, 72 hours, read-out: IC50
Experimental: as §1

[23] = system: siHa; test: as above; format: cell-based; conditions: Homo sapiens, Cervical, 72 hours, read-out: IC50
Experimental: as §1

[24] = system: Caski; test: as above; format: cell-based; conditions: Homo sapiens, Ca-Ski, Cervical, 72 hours, read-out: IC50
Experimental: as §1

[25] = system: NCI-H522; test: as above; format: cell-based; conditions: Homo sapiens, NSCLC, 72 hours
Experimental: as §1

[26] = system: UO-31; test: as above; format: cell-based; conditions: Homo sapiens, Renal, 72 hours, read-out: IC50
Experimental: as §1

[27] = YT30 50 mg/kg i.p. × 16 days, SCID mice, K562 tumor
[28] = YT30 90 mg/kg p.o. × 16 days, SCID mice, K562 tumor

Nc1ccccc1NC(=O)CCCCCC(=O)Nc1cccc(Br)c1 [YT30]
Body weight change [1, 27]: −8.67%
Tumor growth inhibition by size [1, 27]: 44.07%
Tumor growth inhibition by weight [1, 27]: 40.76%
Average body weight, End point [1, 27]: 16.75 ± 1.57 g
Average body weight, Initial [1, 27]: 18.34 ± 0.73 g
Tumor size [1, 27]: 1741.11 ± 1218.90 mm^3
Tumor weight [1, 27]: 2.16 ± 1.86 g
Body weight change [1, 28]: −5.30%
Tumor growth inhibition by size [1, 28]: 41.77%
Tumor growth inhibition by weight [1, 28]: 33.17%
Average body weight, End point [1, 28]: 17.70 ± 2.03 g
Average body weight, Initial [1, 28]: 18.69 ± 1.36 g
Tumor size [1, 28]: 1812.71 ± 581.68 mm^3
Tumor weight [1, 28]: 2.44 ± 0.92 g
Tumor growth inhibition by weight ([1]; intraperitoneal 50 mg/kg/day, 16 days of treatment): 40.76%
Tumor growth inhibition by weight ([1]; oral gavage 90 mg/kg/day, 16 days of treatment): 33.17%
Growth inhibition (FIG. 1) [2]: significantly inhibit cell growth
IC50 [3]: 6.13 µM
IC50 [4]: 5.84 µM
IC50 [5]: 1.04 µM
IC50 [6]: 5.99 µM
IC50 [7]: 16.1 µM
IC50 [8]: 14.4 µM
IC50 [9]: 10.8 µM
IC50 [10]: 11.9 µM
IC50 [11]: 13.9 µM
IC50 [12]: 9.79 µM
IC50 [13]: 5.41 µM
IC50 [14]: 4.98 µM
IC50 [15]: 14.2 µM
IC50 [16]: 5.2 µM
IC50 [17]: 12.5 µM
IC50 [18]: 6.84 µM
IC50 [19]: 4.6 µM
IC50 [20]: 1.13 µM
IC50 [21]: 10.3 µM
IC50 [22]: 10.4 µM
IC50 [23]: 13.1 µM
IC50 [24]: 5 µM
IC50 [25]: 8.15 µM
IC50 [26]: 10.7 µM
